Test results as given in US9028858B2 (Coloplast A/S, priority 2003, dated 2015).
Where two headings read alike, the source gives them in different places.

Experiments:
[1] = Effect of buffer (citrate) in swelling medium on degradation of H2O2; details: no stabilizer
[2] = test system: 7 different bacterial strains; details: mid-log phase, absorbance at 600 nm, 7 strains pooled
Description: The obtained data from each specific bacterial strain were pooled.

[3] = Various stabilizers: degradation of H2O2 at pH 4, 5.5 and 7; details: no stabilizer, 25 mM citric acid, approx. 1% H2O2
Protocol: Therefore the investigation of the influence of the pH-value on the stability in our system was included in the study.
24 different kinds of swelling media containing different stabilizers (one without stabilizer) and 3 different pH-values (pH 4, 5.5 and 7) were prepared. […] The concentration of sodium chloride in each of these three swelling media was 0.7% (w/w). Sodium chloride was tested because it could be used as an osmolality increasing agent. […] Two different kinds of material for the stick-pack were used, one with “peel” and one with “non-peel”. […] The irradiation dose was 2*26 kGy.
The stick-pack with “peel” was a laminated material consisting of PETP (12 μm), aluminium (9 μm) and polyethylene peel (polyethylene+10% polybutylene) (70 μm). […] The stick-packs were made out of a stamped area of 13×35 mm that was welded in the longitudinal direction by 1×3 units on a welder. It was welded by 2×2.2 units across in one end of the stick-pack, and in the other end by 4.0 bar, 130° C. and 3.5 s (breakable seal).
The stick-packs were stored for stability testing at 23° C. and 40° C. Samples were taken out after irradiation and after 2 and 4 weeks at 40° C. and 8 and 16 weeks at 23° C.

[4] = test system: 7 different bacterial strains; details: for bacterial survival rate, Mean: exposed 60 min.; for surviving bacteria, Mean (% of control): 1% hydrogen peroxide
[5] = 23° C., 8 months, pH 7 without buffer
Protocol: Samples were β-sterilized at 50 kGy and stored at 23° C. for 8 months.
The results were calculated from 86 separate samples (mean value±standard deviation of mean value) (Table 5.1).

[6] = Protocol: The pH value of the latter solution was adjusted to 5.5 with 1 M NaOH. 10.0 mL aliquots of each of the two solutions were taken out and placed in 50 mL brown PE-containers.
The samples were β-irradiation at Risø National Laboratory. The samples were measured before irradiation, immediately after irradiation and after 2 and 4 weeks storage at 60° C. (triple determination).

OO [Std H2O2, hydrogen peroxide]
Calculated degraded amount of H2O2 (%) after 2 years storage at 23° C. ([1]; 0 mM citrate, pH 5.5): 22.4% | Calculated degraded amount of H2O2 (%) after 2 years storage at 23° C. ([1]; 0 mM citrate, pH 7): 60.2% | Calculated degraded amount of H2O2 (%) after 2 years storage at 23° C. ([1]; 10 mM citrate, pH 4): 47.6% | Calculated degraded amount of H2O2 (%) after 2 years storage at 23° C. ([1]; 10 mM citrate, pH 5.5): 63.0% | Calculated degraded amount of H2O2 (%) after 2 years storage at 23° C. ([1]; 10 mM citrate, pH 7): 277.1% | Calculated degraded amount of H2O2 (%) after 2 years storage at 23° C. ([1]; 25 mM citrate, pH 5.5): 74.2% | Calculated degraded amount of H2O2 (%) after 2 years storage at 23° C. ([1]; 25 mM citrate, pH 7): 201.5% | bacterial growth, Mean (% of control) ([2]; 0.00000256% hydrogen peroxide): 110.0 % of control | bacterial growth, Mean (% of control) ([2]; 0.0000128% hydrogen peroxide): 99.8 % of control | bacterial growth, Mean (% of control) ([2]; 0.000064% hydrogen peroxide): 97.9 % of control | bacterial growth, Mean (% of control) ([2]; 0.000320% hydrogen peroxide): 96.2 % of control | bacterial growth, Mean (% of control) ([2]; 0.0016% hydrogen peroxide): 87.3 % of control | bacterial growth, Mean (% of control) ([2]; 0.008% hydrogen peroxide): 63.0 % of control | bacterial growth, Mean (% of control) ([2]; 0.04% hydrogen peroxide): 35.6 % of control | bacterial growth, Mean (% of control) ([2]; 0.2% hydrogen peroxide): 16.0 % of control | bacterial growth, Mean (% of control) ([2]; 1.0% hydrogen peroxide): 11.7 % of control | calculated amount of degraded H2O2 after 2 years of storage at 23° C. ([3]; pH 4): 15.7% | calculated amount of degraded H2O2 after 2 years of storage at 23° C. ([3]; pH 5.5): 31.7% | calculated amount of degraded H2O2 after 2 years of storage at 23° C. ([3]; pH 7): 54.7% | bacterial survival rate, Mean ([4]; 0.016% hydrogen peroxide): 49.8 | bacterial survival rate, Mean ([4]; 0.031% hydrogen peroxide): 38.1 | bacterial survival rate, Mean ([4]; 0.063% hydrogen peroxide): 27.8 | bacterial survival rate, Mean ([4]; 0.125% hydrogen peroxide): 14.5 | bacterial survival rate, Mean ([4]; 0.250% hydrogen peroxide): 9.1 | bacterial survival rate, Mean ([4]; 0.500% hydrogen peroxide): 0.2 | bacterial survival rate, Mean ([4]; 1.000% hydrogen peroxide): 0.0 | surviving bacteria, Mean (% of control) ([4]; exposure time 5 min): 37 % of control | surviving bacteria, Mean (% of control) ([4]; exposure time 10 min): 17 % of control | surviving bacteria, Mean (% of control) ([4]; exposure time 15 min): 6 % of control | H2O2 loss per day (%) ([5]; initial 1% H2O2, 0% PVP C-15, 50 kGy): 0.088 ± 0.029% | H2O2 loss per day (%) ([5]; initial 1% H2O2, 6% PVP C-15, 50 kGy): 0.167 ± 0.048% | Concentration of H2O2 (%-point) ([6]; Series I, catheter swelled in a solution of PVP, 0 kGy, 1 week at 60° C.): 0.97 %-point | Concentration of H2O2 (%-point) ([6]; Series I, catheter swelled in a solution of PVP, 0 kGy, 2 weeks at 60° C.): 0.87 %-point | Concentration of H2O2 (%-point) ([6]; Series I, catheter swelled in a solution of PVP, 0 kGy, after irradiation): 1.00 %-point | Concentration of H2O2 (%-point) ([6]; Series I, catheter swelled in a solution of PVP, 25 kGy, 1 week at 60° C.): 0.79 %-point | Concentration of H2O2 (%-point) ([6]; Series I, catheter swelled in a solution of PVP, 25 kGy, 2 weeks at 60° C.): 0.70 %-point | Concentration of H2O2 (%-point) ([6]; Series I, catheter swelled in a solution of PVP, 25 kGy, after irradiation): 0.85 %-point | Concentration of H2O2 (%-point) ([6]; Series I, catheter swelled in a solution of PVP, 50 kGy, 1 week at 60° C.): 0.58 %-point | Concentration of H2O2 (%-point) ([6]; Series I, catheter swelled in a solution of PVP, 50 kGy, 2 weeks at 60° C.): 0.46 %-point | Concentration of H2O2 (%-point) ([6]; Series I, catheter swelled in a solution of PVP, 50 kGy, after irradiation): 0.73 %-point | Concentration of H2O2 (%-point) ([6]; Series I, catheter swelled in a solution of PVP, 75 kGy, 1 week at 60° C.): 0.37 %-point | Concentration of H2O2 (%-point) ([6]; Series I, catheter swelled in a solution of PVP, 75 kGy, 2 weeks at 60° C.): 0.26 %-point | Concentration of H2O2 (%-point) ([6]; Series I, catheter swelled in a solution of PVP, 75 kGy, after irradiation): 0.57 %-point | Concentration of H2O2 (%-point) ([6]; Series II, catheter swelled in distilled water, 0 kGy, 1 week at 60° C.): 0.98 %-point | Concentration of H2O2 (%-point) ([6]; Series II, catheter swelled in distilled water, 0 kGy, 2 weeks at 60° C.): 0.92 %-point | Concentration of H2O2 (%-point) ([6]; Series II, catheter swelled in distilled water, 0 kGy, after irradiation): 1.00 %-point | Concentration of H2O2 (%-point) ([6]; Series II, catheter swelled in distilled water, 25 kGy, 1 week at 60° C.): 0.91 %-point | Concentration of H2O2 (%-point) ([6]; Series II, catheter swelled in distilled water, 25 kGy, 2 weeks at 60° C.): 0.85 %-point | Concentration of H2O2 (%-point) ([6]; Series II, catheter swelled in distilled water, 25 kGy, after irradiation): 0.93 %-point | Concentration of H2O2 (%-point) ([6]; Series II, catheter swelled in distilled water, 50 kGy, 1 week at 60° C.): 0.81 %-point | Concentration of H2O2 (%-point) ([6]; Series II, catheter swelled in distilled water, 50 kGy, 2 weeks at 60° C.): 0.75 %-point | Concentration of H2O2 (%-point) ([6]; Series II, catheter swelled in distilled water, 50 kGy, after irradiation): 0.87 %-point | Concentration of H2O2 (%-point) ([6]; Series II, catheter swelled in distilled water, 75 kGy, 1 week at 60° C.): 0.74 %-point | Concentration of H2O2 (%-point) ([6]; Series II, catheter swelled in distilled water, 75 kGy, 2 weeks at 60° C.): 0.66 %-point | Concentration of H2O2 (%-point) ([6]; Series II, catheter swelled in distilled water, 75 kGy, after irradiation): 0.81 %-point | Concentration of H2O2 (%-point) ([6]; Series III, H2O2-solution in distilled water, 0 kGy, 1 week at 60° C.): 0.87 %-point | Concentration of H2O2 (%-point) ([6]; Series III, H2O2-solution in distilled water, 0 kGy, 2 weeks at 60° C.): 0.76 %-point | Concentration of H2O2 (%-point) ([6]; Series III, H2O2-solution in distilled water, 0 kGy, after irradiation): 1.00 %-point | Concentration of H2O2 (%-point) ([6]; Series III, H2O2-solution in distilled water, 25 kGy, 1 week at 60° C.): 0.91 %-point | Concentration of H2O2 (%-point) ([6]; Series III, H2O2-solution in distilled water, 25 kGy, 2 weeks at 60° C.): 0.88 %-point | Concentration of H2O2 (%-point) ([6]; Series III, H2O2-solution in distilled water, 25 kGy, after irradiation): 0.95 %-point | Concentration of H2O2 (%-point) ([6]; Series III, H2O2-solution in distilled water, 50 kGy, 1 week at 60° C.): 0.84 %-point | Concentration of H2O2 (%-point) ([6]; Series III, H2O2-solution in distilled water, 50 kGy, 2 weeks at 60° C.): 0.85 %-point | Concentration of H2O2 (%-point) ([6]; Series III, H2O2-solution in distilled water, 50 kGy, after irradiation): 0.92 %-point | Concentration of H2O2 (%-point) ([6]; Series III, H2O2-solution in distilled water, 75 kGy, 1 week at 60° C.): 0.79 %-point | Concentration of H2O2 (%-point) ([6]; Series III, H2O2-solution in distilled water, 75 kGy, 2 weeks at 60° C.): 0.77 %-point | Concentration of H2O2 (%-point) ([6]; Series III, H2O2-solution in distilled water, 75 kGy, after irradiation): 0.89 %-point
